From article PMC5972561, “Grapevine fatty acid hydroperoxide lyase generates actin-disrupting volatiles and promotes defence-related cell death” (Journal of Experimental Botany, 2018)

Molecular target: T1, VvHPL1 (VvMTh-HPL1; HPL1) (Vitis vinifera, UniProt F6HID6)
T1 sequence (F6HID6 1-487): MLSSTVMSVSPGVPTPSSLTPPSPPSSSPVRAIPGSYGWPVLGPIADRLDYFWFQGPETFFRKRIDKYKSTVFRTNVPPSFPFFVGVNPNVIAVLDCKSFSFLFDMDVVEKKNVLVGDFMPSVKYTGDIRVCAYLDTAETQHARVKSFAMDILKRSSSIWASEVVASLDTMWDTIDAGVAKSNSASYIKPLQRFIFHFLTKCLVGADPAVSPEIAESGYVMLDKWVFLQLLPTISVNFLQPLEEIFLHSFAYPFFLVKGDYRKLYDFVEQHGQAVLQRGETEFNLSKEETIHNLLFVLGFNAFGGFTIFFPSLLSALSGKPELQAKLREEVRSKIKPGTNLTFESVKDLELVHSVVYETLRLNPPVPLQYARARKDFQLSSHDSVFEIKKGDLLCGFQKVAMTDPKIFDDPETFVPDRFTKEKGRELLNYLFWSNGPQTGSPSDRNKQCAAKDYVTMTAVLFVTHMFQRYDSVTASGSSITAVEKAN
Experiment: SBSE TD-GC-MS of volatile products
Type: biochemical
Conditions: 40 µM substrate, 50 mM sodium phosphate pH 7.0, ambient temperature, 2 h; enzyme partially purified

Structure (SMILES) | SBSE TD-GC-MS of volatile products
CC/C=C\C[C@@H](/C=C/C=C\CCCCCCCC(=O)O)OO [13(S)-hydroperoxy-9(Z),11(E), 15(Z)-octadecatrienoic acid] | 13-HPOT as substrate yielded cis-3-hexenal and trans-2-hexenal
CCCCC[C@@H](/C=C/C=C\CCCCCCCC(=O)O)OO [13(S)-hydroperoxy-9(Z), 11(E)-octadecadienoic acid] | The major product from the conversion of 13-HPOD was hexanal
